Data: patent publication US20260115185A1, “QUINOLINE DERIVATIVES WHICH ACT AS KAPPA-OPIOID RECEPTOR ANTAGONISTS” (The Scripps Research Institute, priority 2023, published 2026)
pIC50: −log10 of the molar value.

What was measured:
[1] = target: T1, kappa opioid receptor (KOR) (Homo sapiens, UniProt P41145); assay: OPRKappa 1 Tango B-Arrestin Assay, antagonist mode (Tango OPRK1-bla U2OS cells, U50488 EC80 challenge); format: cell-based; conditions: for Selectivity (MOR/KOR): Kappa selectivity, MOR IC50 / KOR IC50; for pIC50: antagonist mode, Tango OPRK1-bla U2OS cells, 6 nM U50488 challenge
T1 construct: host or cells: U2OS (Tango OPRK1-bla U2OS)
Method in brief: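 Tango OPRK1-bla U2OS cells, β-arrestin recruitment read as β-lactamase FRET (CCF4-AM, 460/590 nm emission). Compounds, 10-point 1:3 series from nominal 10 µM in quadruplicate, preincubated 30 min at 37 °C, then challenged with U50488 at 6 nM final (EC80) for 4 h; percent inhibition from median ratio.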

mu opioid receptor (MOR) = target: T2, mu opioid receptor (MOR) (Homo sapiens, UniProt P35372); assay: OPRMu1 Discover X β-arrestin Assay, antagonist mode (U2OS cells, DAMGO EC80 challenge); format: cell-based
T2 construct: host or cells: U2OS (Discover X OPRMu1-U2OS, PathHunter)
Method in brief: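 PathHunter U2OS cells with β-gal fragment-complementation readout for β-arrestin recruitment to OPRMu1. Cells were preincubated with compound (10-point, 1:3 series from nominal 10 micromolar) for 30 min at 37 °C, then challenged with 303 nM DAMGO (EC80) for 3 h. Luminescence gave percent inhibition.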

T1 sequence (P41145 whole entry): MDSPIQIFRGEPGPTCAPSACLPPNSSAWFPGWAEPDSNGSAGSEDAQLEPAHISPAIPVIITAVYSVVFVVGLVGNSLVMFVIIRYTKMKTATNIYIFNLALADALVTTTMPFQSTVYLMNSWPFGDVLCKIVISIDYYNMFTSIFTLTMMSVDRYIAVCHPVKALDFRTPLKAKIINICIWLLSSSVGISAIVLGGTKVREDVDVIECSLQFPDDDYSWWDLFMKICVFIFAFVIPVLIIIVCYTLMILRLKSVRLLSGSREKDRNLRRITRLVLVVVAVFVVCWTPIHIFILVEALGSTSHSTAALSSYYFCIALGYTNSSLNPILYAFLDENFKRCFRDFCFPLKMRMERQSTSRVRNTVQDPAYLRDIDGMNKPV
T2 sequence (P35372 whole entry): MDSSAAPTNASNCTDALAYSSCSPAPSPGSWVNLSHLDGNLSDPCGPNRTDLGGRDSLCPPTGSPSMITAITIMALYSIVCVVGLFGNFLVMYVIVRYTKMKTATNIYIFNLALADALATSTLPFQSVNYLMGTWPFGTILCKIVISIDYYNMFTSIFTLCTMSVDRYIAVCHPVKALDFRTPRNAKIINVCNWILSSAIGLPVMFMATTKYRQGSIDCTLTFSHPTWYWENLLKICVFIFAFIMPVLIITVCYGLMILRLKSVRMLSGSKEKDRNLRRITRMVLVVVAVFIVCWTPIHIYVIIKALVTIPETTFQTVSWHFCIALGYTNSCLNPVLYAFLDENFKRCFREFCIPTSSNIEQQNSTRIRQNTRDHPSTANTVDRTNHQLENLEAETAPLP

SMILES	Selectivity (MOR/KOR) [1]	pIC50 [1]	pIC50 (mu opioid receptor (MOR))
CCc1cc(F)c2nc(N3CCC(N[C@H]4CCCC(F)(F)C4)CC3)c(-c3ccn(C)n3)c(C)c2c1 [Compound 73, (S)—N-(3,3-difluorocyclohexyl)-1-(6-ethyl-8-fluoro-4-methyl-3-(1-methyl-1H-pyrazol-3-yl)quinolin-2-yl)piperidin-4-amine]	++ (between 10- and 100-fold selectivity)	8.00 to 9.00	6.00 to 7.00
CCc1cc(F)c2nc(N3CCC(N[C@@H]4CCOC[C@H]4O)CC3)c(-c3cc(C)n(C)n3)c(C)c2c1 [Compound 17, (3S,4R)-4-((1-(3-(1,5-dimethyl-1H-pyrazol-3-yl)-6-ethyl-8-fluoro-4-methylquinolin-2-yl)piperidin-4-yl)amino)tetrahydro-2H-pyran-3-ol]	++ (between 10- and 100-fold selectivity)	8.00 to 9.00	6.00 to 7.00
CCc1cc(F)c2nc(N3CCN(CC4CCOCC4)C[C@H]3CC)c(-c3nc(C)no3)c(C)c2c1 [Compound 34, (R)-5-(6-ethyl-2-(2-ethyl-4-((tetrahydro-2H-pyran-4-yl)methyl)piperazin-1-yl)-8-fluoro-4-methylquinolin-3-yl)-3-methyl-1,2,4-oxadiazole]	+ (less than 10-fold selectivity)	7.00 to 8.00	6.00 to 7.00
CCc1cc(F)c2nc(N3CC[C@@H](N[C@@H]4CCCOC4)[C@H](C)C3)c(-c3ccn(C)n3)c(C)c2c1 [Compound 114]	++ (between 10- and 100-fold selectivity)	8.00 to 9.00	6.00 to 7.00
CCc1cc(F)c2nc(N3CCN(C(=O)C(C)(C)N4CCCC4)C[C@H]3C)c(-c3nc(C)no3)c(C)c2c1 [Compound 153]	+++ (between 100- to 1000-fold selective)	8.00 to 9.00	< 6.00
CCc1cc(F)c2nc(N3CCN(C[C@@H]4CCCO4)C[C@H]3CC)c(-c3nc(C)no3)c(C)c2c1 [Compound 35]	++ (between 10- and 100-fold selectivity)	7.00 to 8.00	< 6.00
CCc1cc(F)c2nc(N3CC[C@H](NC4CCOCC4)[C@H](F)C3)c(-c3nn(C)cc3F)c(C)c2c1F [Compound 70]	+++ (between 100- to 1000-fold selective)	8.00 to 9.00	< 6.00
CCc1cc(F)c2nc(N3CCN(C(=O)[C@H](C)N4CCCC4)C[C@H]3C)c(-c3nc(C)no3)c(C)c2c1 [Compound 191]	++++ (more than 1000-fold selectivity over MOR)	8.00 to 9.00	< 6.00
CCc1cc(-c2ccnn2C)c2nc(N3CC[C@@H](NC4CCOCC4)[C@@H](F)C3)c(-c3ccn(C)n3)c(C)c2c1 [Compound 15, (3S,4R)-1-(6-ethyl-4-methyl-3-(1-methyl-1H-pyrazol-3-yl)-8-(1-methyl-1H-pyrazol-5-yl)quinolin-2-yl)-3-fluoro-N-(tetrahydro-2H-pyran-4-yl)piperidin-4-amine]	++ (between 10- and 100-fold selectivity)	8.00 to 9.00	7.00 to 8.00
CCc1cc(F)c2nc(N3CC[C@@H](N[C@@H]4CCCOC4)C[C@H]3C)c(-c3cc(C)no3)c(C)c2c1 [Compound 144]	+++ (between 100- to 1000-fold selective)	> 9.00	6.00 to 7.00
CCc1cc(F)c2nc(N3CC[C@H](N[C@@H]4CCOC4)[C@@H](C)C3)c(-c3ccn(C)n3)c(C)c2c1 [Compound 108]	+++ (between 100- to 1000-fold selective)	8.00 to 9.00	6.00 to 7.00
CCc1cc(-c2ccn(C)n2)c2nc(N3CCC(N[C@H]4CCOC[C@@H]4F)CC3)c(-c3nc(C)no3)c(C)c2c1 [Compound 102]	++++ (more than 1000-fold selectivity over MOR)	> 9.00	< 6.00
CCc1cc(F)c2nc(N3CCN(C(=O)[C@H](C)N4CC[C@@H](F)C4)C[C@H]3C)c(-c3nc(C)no3)c(C)c2c1 (stereo in doubt) [Compound 151]	+++ (between 100- to 1000-fold selective)	8.00 to 9.00	< 6.00
